Data set [1] can be described thus: inhibition of DNA synthesis in CHO-KI cells (interactions with mammalian DNA), fluorophotometric. It counts as cell-based, Chinese hamster. As to conditions: hamster, cho-k1 cells, measure of interactions with mammalian DNA, read-out: ID50 (concentration at which DNA synthesis is inhibited by 50%). The source says:
(§1) Tables 9 and 10 show the minimum inhibitory concentrations (MIC values), as a measure of the antibacterial activity, and the ID50 values, as a measure of the interactions with mammalian DNA of a substance, both for compounds according to the invention and for reference compounds from the prior art (EP 520 240).
The ID50 is understood as meaning the concentration of a substance at which DNA synthesis in cells from ovaries of the Chinese hamster (CHO-KI) is inhibited by 50%. This value is determined after incubation of the corresponding substances in decreasing dilution stages over defined periods of time. For this, the DNA synthesis in CHO-KI cells is determined in comparison with controls by means of fluorophotometric methods.

The subject of the next data set is E. coli Neumann. Kind of data set: minimum inhibitory concentration, series dilution method on Iso-Sensitest agar. Format: cell-based. The settings on record: Escherichia coli, 37° C., about 20 hours. How it is done: as §1
(§2) The minimum inhibitory concentrations (MIC) were determined by a series dilution method on Iso-Sensitest agar (Oxoid). For each test substance, a series of agar plates each comprising concentrations of the active compound decreasing by double dilution in each case was prepared. The agar plates were inoculated with a multipoint inoculator (Denley). Overnight cultures of the pathogens which had been diluted beforehand such that each inoculation point comprised about 10^4 colony-forming particles were used for the inoculation. The inoculated agar plates were incubated at 37° C. and the germ growth was read off after about 20 hours. The MIC value (μg/ml) indicates the lowest active compound concentration at which no growth was detectable with the naked eye.

The test system of a further data set is Staph. aureus 133. The description is as above. It counts as cell-based. The settings on record: Staphylococcus aureus, 37° C., about 20 hours. Here is the method: as §1, §2
In the next data set the test system is Ps. aeruginosa Walter. The data set is described as above. As to conditions: Pseudomonas aeruginosa, 37° C., about 20 hours. Format: cell-based. How it is done: as §1, §2
The subject of the next data set is Staph. aureus ICB 25701. The description is as above. It counts as cell-based. The settings on record: Staphylococcus aureus, ICB25701, 37° C., about 20 hours. Here is the method:
as §1, §2

Molecules are shown by their SMILES. Converted amounts (≈) assume the structure as drawn.

Broadly, the MIC is the smallest concentration in the dilution series that meets the test's criterion for growth inhibition. A high value points to a need for much substance. As to `NC1C=CCC2CN(c3cc4c(cc3F)c(=O)c(C(=O)O)cn4C3CC3)CC12` (centres unmarked) [Example 19, 7(4-amino-1,3,3a,4,7,7a-hexahydro-isoindol-2-yl)-1-cyclopropyl-6-fluoro-14-dihydro-4-oxo-3-quinolinecarboxylic acid, reference compound], the IC50 in data set [1] came to 1 µg/mL (≈ 2.61 µM). The MIC is at most 0.015 µg/mL in the data set on E. coli Neumann, at most 0.015 µg/mL in the data set with Staph. aureus 133, 1 µg/mL (≈ 2.61 µM) in the data set on Ps. aeruginosa Walter and 1 µg/mL (≈ 2.61 µM) with Staph. aureus ICB 25701.
As to `N[C@@H]1CCC=C2CN(c3c(F)cc4c(=O)c(C(=O)O)cn(C5CC5)c4c3F)C[C@@H]21` (racemic) [Example 1, 7-[(3aRS,4RS)-4-amino-2,3,3a,4,5,6-hexahydro-1H-isoindol-2-yl]-1-cyclopropyl-6,8-difluoro-1,4-dihydro-4-oxo-3-quinolinecarboxylic acid], the IC50 in data set [1] was 4 µg/mL (≈ 9.96 µM). For the same molecule, the MIC against E. coli Neumann was at most 0.015 µg/mL; against Staph. aureus 133 it was at most 0.015 µg/mL; against Ps. aeruginosa Walter it was 0.125 µg/mL (≈ 0.311 µM); against Staph. aureus ICB 25701, at most 0.015 µg/mL.
Turning to `N[C@@H]1CCC=C2CN(c3cc4c(cc3F)c(=O)c(C(=O)O)cn4C3CC3)C[C@@H]21` (racemic) [Example 2, 7-[(3aRS,4RS)-4-amino-2,3,3a,4,5,6-hexahydro-1H-isoindol-2-yl]-1-cyclopropyl-6-fluoro-1,4-dihydro-4-oxo-3-quinolinecarboxylic acid], the IC50 in data set [1] is 2 µg/mL (≈ 5.22 µM). Also, the MIC against E. coli Neumann was at most 0.015 µg/mL; with Staph. aureus 133, at most 0.015 µg/mL; in the data set on Ps. aeruginosa Walter it was 1 µg/mL (≈ 2.61 µM); in the data set with Staph. aureus ICB 25701, 0.125 µg/mL (≈ 0.326 µM).
In the case of `NC1C=CCC2CN(c3c(F)cc4c(=O)c(C(=O)O)cn(C5CC5)c4c3F)CC12` (centres unmarked) [Example 17 B, 7(4-amino-1,3,3a,4,7,7a-hexahydro-isoindol-2-yl)-1-cyclopropyl-6,8-difluoo-1,4-dihydro-4-oxo-3-quinolinecarboxylic acid, reference compound], the IC50 in data set [1] was 0.01 µg/mL (≈ 0.0249 µM). Moreover, the MIC is at most 0.015 µg/mL against E. coli Neumann, at most 0.015 µg/mL in the data set with Staph. aureus 133, 0.25 µg/mL (≈ 0.623 µM) in the data set on Ps. aeruginosa Walter and 0.03 µg/mL (≈ 0.0747 µM) against Staph. aureus ICB 25701.
As to `N[C@@H]1CCC=C2CN(c3c(F)cc4c(=O)c(C(=O)O)cn([C@@H]5C[C@@H]5F)c4c3F)C[C@@H]21` (relative stereo) [Example 4, 7-[(3aRS,4RS)-4-amino-2,3,3a,4,5,6-hexahydro-1H-isoindol-2-yl]-6,8-difluoro-1-(cis-2-fluorocyclopropyl)-1,4-dihydro-4-oxo-3-quinolinecarboxylic acid], the IC50 in data set [1] came to 2 µg/mL (≈ 4.77 µM). Moreover, the MIC against E. coli Neumann was at most 0.015 µg/mL; with Staph. aureus 133, at most 0.015 µg/mL; with Ps. aeruginosa Walter, 0.25 µg/mL (≈ 0.596 µM); with Staph. aureus ICB 25701 it was 0.03 µg/mL (≈ 0.0715 µM).
Turning to `N[C@@H]1CCC=C2CN(c3c(F)cc4c(=O)c(C(=O)O)cn(C5CC5)c4c3Cl)C[C@@H]21` (racemic) [Example 3, 7-[(3aRS,4RS)-4-amino-2,3,3a,4,5,6-hexahydro-1H-isoindol-2-yl]-8-chloro-1-cyclopropyl-6-fluoro-1,4-dihydro-4-oxo-3-quinolinecarboxylic acid], in data set [1], the IC50 worked out at 0.1 µg/mL (≈ 0.239 µM). In addition, the MIC with E. coli Neumann was at most 0.015 µg/mL; against Staph. aureus 133 it was at most 0.015 µg/mL; against Ps. aeruginosa Walter, 0.5 µg/mL (≈ 1.2 µM); against Staph. aureus ICB 25701 it was at most 0.015 µg/mL.
With `NC1C=CCC2CN(c3c(F)cc4c(=O)c(C(=O)O)cn(C5CC5)c4c3Cl)CC12` (centres unmarked) [Example 18 A, 7(4-amino-1,3,3a4,7,7a-hexahydro-isoindol-2-yl)-8-chloro-1-cyclopropyl-6-luoro-1,4-dihydro-4-oxo-3-quinolinecarboxylic acid, reference compound], the IC50 in data set [1] came out at 0.06 µg/mL (≈ 0.144 µM). In addition, the MIC in the data set on E. coli Neumann is at most 0.015 µg/mL; against Staph. aureus 133, at most 0.015 µg/mL; with Ps. aeruginosa Walter, 0.25 µg/mL (≈ 0.598 µM); in the data set with Staph. aureus ICB 25701 it was at most 0.015 µg/mL.
